Test results published in US8642801B2 (BHI Limited Partnership, priority 2003, dated 2014).
Structures can show the parent of a compound that is named as a salt.

What follows are compounds tested against T1, Aβ40 and Aβ42 peptides in plasma and brain of TgCRND8 mice (Homo sapiens, UniProt P05067) (assay: Short term treatment in adult transgenic CRND8 mice overexpressing βAPP: Aβ levels in plasma and brain by ELISA). Details: Brain Homogenate Vehicle Group, Day 14; TgCRND8 mice, 250 mg/kg daily.
T1 construct: ELISA using Human Aβ40 and Aβ42 Fluorometric ELISA kits from Biosource; from tissue; host or cells: plasma and brain homogenate of TgCRND8 transgenic mice (hAPP transgene)
Format: in vivo, Mouse
Description: Transgenic mice, […]8, expressing the human amyloid precursor protein (hAPP) develop a pathology resembling Alzheimer's disease. In particular, high levels of Aβ40 and Aβ 42 have been documented in the plasma and the brain of these animals at 8-9 weeks of age, followed by early accumulation of amyloid plaques similar to the senile plaques observed in AD patients. These animals also display progressive cognitive deficits that parallel the appearance of degenerative changes. See, […], et al., J. Biol. Chem. 276, 21562-70 (2001). The short term therapeutic effect of 19 compounds of the invention was studied. […] The following abbreviations are used to designate these animals from the 3rd and 4th generation backcross in the present protocol: TgCRND8-2.B6C3F1(N3); TgCRND8-2.B6C3F1(N4). Baseline animals (Group 1) consisted of naive TgCRND8-2. B6C3F1(N3) at 11±1 weeks of age. These mice were used to determine the Aβ levels in the plasma and brain of naive transgenic animals at the initiation of treatment. […] At the end of the treatment periods, plasma and perfused brains were collected for quantification of Aβ levels. […] Plasma samples were immediately frozen and stored at -80° C. pending analysis. The brains were removed, frozen, and stored at -80° C. awaiting analysis. […] Samples were spun at 15000 g for 20 minutes and the supernatants were transferred to fresh tubes. […] The tubes were vortexed for 30 seconds and frozen at -80° C. […] Samples were thawed at room temperature, sonicated at 80° C. for 15 minutes and frozen again. This cycle was repeated 3 times to ensure homogeneity and samples were returned to -80° C. pending analysis. Aβ levels were evaluated in plasma and brain samples by ELISA using Human Aβ40 and Aβ42 Fluorometric ELISA kits from Biosource (Cat. […] In short, samples were thawed at room temperature, sonicated for 5 minutes at 80° C. (sonication for brain homogenates; no sonication for plasma samples) and kept on ice. Aβ peptides were captured using 100 μl of the diluted samples to the plate and incubated without shaking at 4° C. overnight. The samples were aspirated and the wells were rinsed 4 times with wash buffer obtained from the Biosource ELISA kit. The anti-Aβ40 or anti-Aβ42 rabbit polyclonal antiserum (specific for the Aβ40 or Aβ42 peptide) was added (100 μl) and the plate was incubated at room temperature for 2 hours with shaking. The wells were aspirated and washed 4 times before adding 100 μl of the alkaline phosphatase labeled anti-rabbit antibody and incubating at room temperature for 2 hours with shaking. The plates were then rinsed 5 times and the fluorescent substrate (100 μl) was added to the plate. The plate was incubated for 35 minutes at room temperature and the plate was read using a titer plate reader at an excitation wavelength of 460 nm and emission at 560 nm Compounds were scored based on their ability to modulate levels of Aβ peptides in the plasma and the cerebral soluble/insoluble levels in the brain. Levels of Aβ observed in the plasma and brain of treated animals were normalized using values from vehicle-treated (water) or methylcellulose-treated control groups and ranked according to the strength of the pharmacological effect. Increases in the levels of Aβ peptides are indicated using “+” symbols, while decreases in the levels of Aβ peptides are indicated using “-” symbols. The strongest effects are recorded as “+++” or “- - -” while the weakest are shown as “+” or “-”.

| SMILES | Brain homogenate Aβ40 Change Insoluble | Brain homogenate Aβ40 Change Soluble |
| --- | --- | --- |
| CC1CC(NCCCS(=O)(=O)O)CC(C)(C)C1 (centres unmarked) [ED, 3-(3,3,5-trimethylcyclohexyl)amino-1-1-propanesulfonic acid] | + (increases in the levels of Aβ (relative to untreated control) of 20 to 39% are scored as “+”) | − (Decreases in the levels of Aβ of 5 to 19% are scored as “−”) |

Same assay, conditions: Brain Homogenate Vehicle Group, Day 28; TgCRND8 mice, 250 mg/kg daily

| SMILES | Brain homogenate Aβ40 Change Insoluble | Brain homogenate Aβ40 Change Soluble | Brain homogenate Aβ42 Change Insoluble | Brain homogenate Aβ42 Change Soluble |
| --- | --- | --- | --- | --- |
| CC1CC(NCCCS(=O)(=O)O)CC(C)(C)C1 (centres unmarked) [ED, 3-(3,3,5-trimethylcyclohexyl)amino-1-1-propanesulfonic acid] | −− (decreases of 20 to 38% are scored as “− −”) | − (Decreases in the levels of Aβ of 5 to 19% are scored as “−”) | − (Decreases in the levels of Aβ of 5 to 19% are scored as “−”) | − (Decreases in the levels of Aβ of 5 to 19% are scored as “−”) |

These compounds were tested against T2, IAPP (Homo sapiens, UniProt P10997) (assay: MS (electrospray mass spectrometry) binding assay for IAPP). Details: Table 3B; 30 μM Aβ peptide, 150 μM compound (so in the source).
T2 construct: which is a 37 amino acid peptide, derived from a larger precursor peptide, called pro-IAPP
T2 sequence (P10997 34-70 limits assumed): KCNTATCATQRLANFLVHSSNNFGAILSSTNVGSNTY

| SMILES | MS binding IAPP |
| --- | --- |
| CC(C)CCNCCC(C)S(=O)(=O)O (centres unmarked) [KH, 4-[(3-methylbutyl)amino]-2-butanesulfonic acid] | ++ (40-59% binding=(++)) |
| O=S(=O)(O)CCCCNC1C2CC3CC(C2)CC1C3 (centres unmarked) [LN, 4-(2-adamantyl)amino-1-butanesulfonic acid] | +++ (60-100% binding=(+++)) |
| CC(C)(C)NCCS(=O)(=O)O [KS] | +++ (60-100% binding=(+++)) |
| CC(CCNCc1ccccc1)S(=O)(=O)[O-].[Na+] (centres unmarked) [JP, 4-(benzylamino)-2-butanesulfonic acid, sodium salt] | +++ (60-100% binding=(+++)) |
| N[C@@H](Cc1ccccc1)C(=O)NCCCS(=O)(=O)O [KN] | ++ (40-59% binding=(++)) |
| N[C@@H](Cc1ccccc1)C(=O)NCCS(=O)(=O)O [KT] | ++ (40-59% binding=(++)) |
| O=S(=O)(O)CCCCNC1CCCCC1 [LK, 4-(cyclohexylamino)-1-butanesulfonic acid] | ++ (40-59% binding=(++)) |
| CC(C)(C)NCC(O)CS(=O)(=O)O (centres unmarked) [JV, 3-(tert-butylamino)-2-hydroxy-1-propanesulfonic acid] | ++ (40-59% binding=(++)) |
| O=S(=O)([O-])CC(O)CNC12CC3CC(CC(C3)C1)C2.[Na+] (centres unmarked) [KB, 4-(adamantan-1-ylamino)-2-hydroxy-1-propanesulfonic acid] | +++ (60-100% binding=(+++)) |
| CC(CCNC1CCCCC1)S(=O)(=O)O (centres unmarked) [KM, 4-(cyclohexylamino)-2-butanesulfonic acid] | +++ (60-100% binding=(+++)) |
| O=S(=O)(O)CC(O)CNC1C2CC3CC(C2)CC1C3 (centres unmarked) [KJ, 3-(2-adamantylamino)-2-hydroxy-1-propanesulfonic acid] | +++ (60-100% binding=(+++)) |
| CCNCCC(C)S(=O)(=O)O (centres unmarked) [JQ, 4-(ethylamino)-2-butanesulfonic acid, sodium salt] | +++ (60-100% binding=(+++)) |

Same assay, conditions: Table 3D; 40 μM Aβ peptide, 400 μM compound (so in the source)

| SMILES | MS binding IAPP |
| --- | --- |
| O=C(NCCCCS(=O)(=O)O)OCc1ccccc1 [KV] | + (20-39% binding=(+)) |
| NCCCCCS(=O)(=O)O [LP] | +++ (75-100% binding=(+++)) |
| O=S(=O)(O)CCCN1CCc2c(Br)cccc2C1 [IK] | + (20-39% binding=(+)) |
| O=[N+]([O-])c1ccc2c(c1)CN(CCCS(=O)(=O)O)CC2 [IL] | + (20-39% binding=(+)) |
| O=S(=O)(O)CCCCN1CCc2c([nH]c3ccc(Br)cc23)C1 [KX] | + (20-39% binding=(+)) |
| CC(=O)N(C(C)=O)c1cccc2c[n+](CCCS(=O)(=O)[O-])ccc12 [II] | − (<20%=(−)) |
| O=S(=O)([O-])CCC[n+]1ccn(CCCS(=O)(=O)O)c1 [HP] | − (<20%=(−)) |
| NCCCCC(NCCCS(=O)(=O)O)C(=O)O (centres unmarked) [HY] | − (<20%=(−)) |
| O=S(=O)(O)CCCn1cc[n+](CCCn2ccnc2)c1 [HW] | − (<20%=(−)) |
| Nc1cccc2c1CCN(CCCS(=O)(=O)O)C2 [IH] | + (20-39% binding=(+)) |
| O=S(=O)(O)CCCN/C=C\NCCCS(=O)(=O)O [HX] | − (<20%=(−)) |
| O=S(=O)(O)CCCN1CCc2ccc(Br)cc2C1 [IN] | + (20-39% binding=(+)) |
| O=[N+]([O-])c1cccc2c[n+](CCCS(=O)(=O)[O-])ccc12 [IJ] | + (20-39% binding=(+)) |
| O=C(O)CNCCCS(=O)(=O)O [HZ] | − (<20%=(−)) |
| Nc1ccc2[nH]c3c(c2c1)CCN(CCCCS(=O)(=O)O)C3 [KW] | + (20-39% binding=(+)) |
| O=S(=O)(O)CCCn1cc[n+](CCCS(=O)(=O)O)c1 [HS] | − (<20%=(−)) |
| O=C(O)c1ccc2[nH]c3c(c2c1)CCN(CCCS(=O)(=O)O)C3 [IU] | − (<20%=(−)) |
| [N-]=[N+]=NCCCS(=O)(=O)O [HN] | − (<20%=(−)) |
| Nc1ccc2c(c1)CN(CCCS(=O)(=O)O)CC2 [IM] | − (<20%=(−)) |
| O=[N+]([O-])c1ccc2[nH]c3c(c2c1)CCN(CCCS(=O)(=O)O)C3 [IT] | + (20-39% binding=(+)) |
| O=S(=O)(O)CCCN1CCc2c(I)cccc2C1 [IP] | + (20-39% binding=(+)) |
| C[N+](C)(CCCS(=O)(=O)[O-])CCCS(=O)(=O)O [IF] | − (<20%=(−)) |
| O=S(=O)(O)CCCN1CCc2c([nH]c3ccc(Br)cc23)C1 [IR] | + (20-39% binding=(+)) |
| O=C(O)c1ccc2[nH]c3c(c2c1)CCN(CCCCS(=O)(=O)O)C3 [LA] | − (<20%=(−)) |
| COC(=O)[C@@H](Cc1ccc(I)cc1)NCCCS(=O)(=O)O [IB] | + (20-39% binding=(+)) |
| O=[N+]([O-])c1ccc2[nH]c3c(c2c1)CCN(CCCCS(=O)(=O)O)C3 [KY] | + (20-39% binding=(+)) |

What follows are compounds tested against T2, IAPP in the same assay as above. Details: Table 3C; 20 μM Aβ peptide, 100 μM compound (so in the source).
Description: The ability of a therapeutic compound of the invention to inhibit an interaction between an amyloidogenic protein and a glycoprotein or proteoglycan constituent of a basement membrane can be assessed by an in vitro binding assay, such as that described in U.S. Pat. No. 5,164,295, the contents of which are hereby incorporated by reference. Alternatively, the ability of a compound to bind to an amyloidogenic protein or to inhibit the binding of a basement membrane constituent (e.g., HSPG) to an amyloidogenic protein (e.g., Aβ) can be measured using a mass spectrometry assay where soluble protein, e.g., Aβ, IAPP, β2M is incubated with the compound. A compound which binds to, e.g., Aβ, will induce a change in the mass spectrum of the protein. Exemplary protocols for a mass spectrometry assay employing Aβ and IAPP can be found in the Examples, the results of which are provided in Table 3. The protocol can readily be modified to adjust the sensitivity of the data, e.g., by adjusting the amount of protein and/or compound employed. Thus, e.g., binding might be detected for test compounds noted as not having detectable binding employing less sensitive test protocols.
The test compounds were synthesized and screened by mass spectrometry (“MS”) assays, except for selected compounds which were purchased from a commercial source. The MS assay gives data on the ability of compounds to bind to proteins, in this example, to β-amyloid and IAPP.
In the MS assay for Aβ40, samples were prepared as aqueous solutions (adding 20% ethanol if necessary to solubilize in water), 200 μM of a test compound and 20 μM of solubilized Aβ40, or 400 μM of a test compound and 40 μM of solubilized Aβ40. The pH value of each sample was adjusted to 7.4 (±0.2) by addition of 0.1% aqueous sodium hydroxide. The solutions were then analyzed by electrospray ionization mass spectrometry using a Waters ZQ 4000 mass spectrometer. Samples were introduced by direct infusion at a flow-rate of 25 μL/min within 2 hr. after sample preparation. The source temperature was kept at 70° C. and the cone voltage was 20 V for all the analysis. Data were processed using Masslynx 3.5 software. The MS assay gives data on the ability of compounds to bind to soluble Aβ, whereas the ThT, EM and CD assays give data on inhibition of fibrillogenesis. In Table 3, a blank box means that a value was not determined for that compound in that assay.
The key below describes the codes used in Table 3A to quantify the binding based on the intensity of the absorption.

| SMILES | MS binding IAPP |
| --- | --- |
| O=S(=O)(O)CCCNC(Cc1ccccc1)c1ccccc1 (centres unmarked) [JC] | + (20-39% binding=(+)) |
| CC(C)CCNCC(O)CS(=O)(=O)O (centres unmarked) [KK, 2-hydroxy-3-[(3-methylbutyl)amino]-1-propane sulfonic acid] | +++ (75-100% binding=(+++)) |
| O=S(=O)(O)CCCCNC1CCCc2ccccc21 (centres unmarked) [LG] | ++ (40-74% binding=(++)) |
